Data taken from ChEMBL document CHEMBL1147034, “Synthesis and evaluation of 2',4',6'-trihydroxychalcones as a new class of tyrosinase inhibitors” (Bioorg Med Chem, 2007).

The molecules below were run against T1, Tyrosinase (Agaricus bisporus, UniProt O42713).
T1 sequence (O42713 whole entry): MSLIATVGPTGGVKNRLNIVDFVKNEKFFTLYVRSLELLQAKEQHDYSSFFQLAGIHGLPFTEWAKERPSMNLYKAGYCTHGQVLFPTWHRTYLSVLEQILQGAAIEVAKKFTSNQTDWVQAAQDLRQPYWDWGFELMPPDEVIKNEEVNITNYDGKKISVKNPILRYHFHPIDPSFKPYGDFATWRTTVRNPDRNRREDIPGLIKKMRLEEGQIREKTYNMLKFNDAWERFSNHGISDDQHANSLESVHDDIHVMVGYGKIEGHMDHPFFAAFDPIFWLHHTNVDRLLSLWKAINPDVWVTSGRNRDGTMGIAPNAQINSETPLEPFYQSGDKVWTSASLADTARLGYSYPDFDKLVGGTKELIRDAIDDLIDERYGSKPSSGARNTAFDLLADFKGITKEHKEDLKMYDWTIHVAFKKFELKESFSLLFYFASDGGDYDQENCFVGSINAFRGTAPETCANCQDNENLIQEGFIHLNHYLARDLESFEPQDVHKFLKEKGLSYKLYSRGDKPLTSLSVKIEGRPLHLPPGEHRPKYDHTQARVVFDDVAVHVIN

| SMILES | IC50 | Ki |
| --- | --- | --- |
| O=C(/C=C/c1ccc(O)cc1O)c1ccc(O)cc1O | 5 µM | – |
| COc1ccc(/C=C/C(=O)c2c(O)cc(O)cc2O)cc1OC | 150 µM | – |

Next, values leading:

| IC50 | Ki | SMILES |
| --- | --- | --- |
| 1 µM | 3.1 µM | O=C(/C=C/c1ccc(O)cc1O)c1c(O)cc(O)cc1O |
| 193 µM | – | O=C(/C=C/c1cccc(O)c1O)c1c(O)cc(O)cc1O |
| 200 µM | – | O=C(/C=C/c1cc(O)c(O)c(O)c1)c1c(O)cc(O)cc1O |
| 3.1 µM | – | COc1cc(O)cc(O)c1C(=O)/C=C/c1ccc(O)cc1O |

The molecules below were run against T2, Tyrosinase (Agaricus bisporus) (UniProt O42713) (assay: Inhibition of mushroom tyrosinase at 400 uM).
T2 sequence (whole entry): T1 sequence (O42713 whole entry)

| SMILES | inhibition |
| --- | --- |
| O=C(/C=C/c1ccccc1)c1c(O)cccc1O | < 20% |
| O=C(/C=C/c1ccccc1)c1ccc(O)cc1O | < 20% |
| COc1cc(O)c(C(=O)/C=C/c2ccc(O)c(O)c2)c(OC)c1 | < 20% |
| COc1cc(O)c(C(=O)/C=C/c2cc(O)c(O)c(O)c2)c(OC)c1 | < 20% |
| O=C(/C=C/c1ccc(O)c(O)c1)c1ccccc1O | < 20% |
| O=C(/C=C/c1ccc(O)c(O)c1)c1ccc(O)c(O)c1 | < 20% |

Further lines, results first:

| inhibition | SMILES |
| --- | --- |
| 72% | O=C(/C=C/c1ccc(O)cc1O)c1c(O)cc(O)cc1O |
| < 20% | O=C(/C=C/c1ccc(O)c(O)c1)c1c(O)cc(O)cc1O |
| < 20% | COc1cc(O)c(C(=O)/C=C/c2cccc(O)c2O)c(OC)c1 |
